Laboratory results published in patent US20250041304A1 (Eli Lilly and Company, priority 2021, published 2025).
Like-named read-outs stand apart in the source and are kept apart here.

Legend:
[1] = tested on: HE; experiment: clinical studies of baricitinib for treating HE (Example 2, with Davos Biosciences GmbH); format: in vivo, human; details: daily dosage of 4 mg
[2] = tested on: patients with HE; details: cited from earlier work; for HE severity after treatment / HECSI score after treatment: after 16 weeks; for HE severity after treatment: 'severe' at start

## CCS(=O)(=O)N1CC(CC#N)(n2cc(-c3ncnc4[nH]ccc34)cn2)C1 [baricitinib, {1-(ethylsulfonyl)-3-[4-(7H-pyrrolo[2,3-d]pyrimidin-4-yl)-1H-pyrazol-1-yl]azetidin-3-yl}acetonitrile]
[1]
  efficacy in HE (photographic images and additional clinical data): effective
[2]; 4 mg tablet once per day
  treatment outcome of two patients with HE: successfully treated
[2]; case 1: severe hyperkeratotic HE, 4 mg once per day
  HE severity after treatment: almost clear
[2]; case 1, 4 mg once per day, HECSI 55 (severe) at start
  HECSI score after treatment: 4
[2]; case 1, 4 mg once per day
  tolerability / side effects: no side effects occurred
[2]; case 1, improved from "strongly impaired"
  quality of life (QOLHEQ) after treatment: not at all impaired
[2]; case 2: severe AD with severe atopic HE, 4 mg per day tapered to 2 mg per day at 12 weeks
  HE severity after treatment: almost clear
[2]; case 2, 4 mg per day tapered to 2 mg at 12 weeks, HECSI 47 (severe) at start
  HECSI score after treatment: 8
[2]; case 2, at 16 weeks
  adverse event leading to discontinuation: bacterial corneal ulcer
[2]; case 2, improved from "moderately impaired"
  quality of life (QOLHEQ) after treatment: not at all impaired
